According to patent US20170354639A1, “DITERPENOID DERIVATIVES AND METHODS OF USE THEREOF” (Biogen MA Inc., priority 2014, published 2017):

Target: Nrf2-Keap1 (Homo sapiens, UniProt Q14145)
Test: DiscoveRx PathHunter Nrf2-Keap1 nuclear translocation functional assay (agonist format)
Assay type: cell-based
Settings: in duplicate, agonist mode; for EC50: 10 concentrations, 3-fold serial dilutions, 30 μM top concentration, normalized to CDDO methyl ester and vehicle
Method: DiscoveRx PathHunter® Nrf2-Keap1 Functional Assay
DiscoveRx's Nrf2-Keapl translocation assay was used to profile compounds. Primary Screening was performed in duplicate at a single concentration of 10 μM and EC50 determinations were performed in duplicate at 10 concentrations with 3-fold serial dilutions at a 30 μM top concentration or an otherwise specified top concentration.
The PathHunter® Nuclear Translocation assay detects translocation of a target protein to, or from, the nucleus. In this system, Prolink™ (PK), a small enzyme fragment, is fused to the protein of interest and Enzyme Acceptor (EA) is localized in the nucleus. Activation of the signaling pathway induces the target protein to either transit into the nucleus, thus forcing complementation of the PK and EA fragments, or out of the nucleus, hindering complementation of the fragments.
Cell handling: PathHunter Pathway cell lines were expanded from freezer stocks according to standard procedures. 5000 cells were seeded in Cell Plating Reagent 0 (containing 1% FBS) to a total volume of 20 μL into white walled, 384-well microplates and incubated for the overnight prior to testing.
Agonist format: For Agonist determination, cells were incubated with sample to induce response. Dilution of sample stocks was performed to generate 100× sample in DMSO. Intermediate dilution of sample stocks was performed to generate 5× sample in assay buffer (Cell Plating Reagent 0 containing 1% FBS). 5 μL of 5× sample was added to cells and incubated at room temperature for 6 hours. Vehicle concentration was 1%.
Signal detection: Assay signal was generated through a single addition of 25 μL (100% v/v) of PathHunter Flash Detection reagent, followed by a one hour incubation at room temperature. Microplates were read following signal generation with a PerkinElmer Envision™ instrument for chemiluminescent signal detection.
Data analysis: Compound activity was analyzed using CBIS data analysis suite (ChemInnovation, CA). For agonist mode assays, percentage activity was calculated using the following formula: % Activity=100%×(mean RLU of test sample−mean RLU of vehicle control)/(mean MAX RLU control ligand−mean RLU of vehicle control). For EC50 determination, a control agonist dose response curve was generated in the Keap 1-Nrf2 biosensor assay, data was normalized to the maximal and minimal response observed in the presence of the control ligand and vehicle respectively. CDDO methyl ester was used as a control compound. Compounds were tested in the agonist mode of the assay and data was normalized to the maximal and minimal response observed in the presence of control ligand and vehicle.

[1] = 6 h, single concentration of 10 μM, normalized to control ligand (CDDO methyl ester) and vehicle
[2] = single concentration of 10 μM, 6 hours, normalized to control ligand (CDDO methyl ester) and vehicle

Chain of Nrf2-Keap1 (Q14145 whole entry): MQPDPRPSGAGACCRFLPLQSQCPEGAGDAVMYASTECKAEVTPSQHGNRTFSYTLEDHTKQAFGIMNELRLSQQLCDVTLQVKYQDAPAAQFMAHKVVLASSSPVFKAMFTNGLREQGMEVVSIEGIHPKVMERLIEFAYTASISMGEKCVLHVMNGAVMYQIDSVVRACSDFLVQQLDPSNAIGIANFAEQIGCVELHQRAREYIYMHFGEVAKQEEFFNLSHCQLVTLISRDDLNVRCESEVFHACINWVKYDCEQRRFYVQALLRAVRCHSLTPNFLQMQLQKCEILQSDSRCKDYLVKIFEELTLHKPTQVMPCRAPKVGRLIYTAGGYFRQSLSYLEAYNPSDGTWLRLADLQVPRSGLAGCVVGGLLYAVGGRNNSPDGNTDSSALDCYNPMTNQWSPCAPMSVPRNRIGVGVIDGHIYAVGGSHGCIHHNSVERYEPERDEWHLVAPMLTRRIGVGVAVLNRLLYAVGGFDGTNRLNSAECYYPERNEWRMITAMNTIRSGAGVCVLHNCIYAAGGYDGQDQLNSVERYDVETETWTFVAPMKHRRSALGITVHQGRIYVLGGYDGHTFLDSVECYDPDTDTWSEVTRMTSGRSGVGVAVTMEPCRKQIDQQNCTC

EC50 | activation at 10 µM [1] | Compound | other results
500 to 2000 nM | > 100% | C=C1CC[C@H]2[C@@](C)(CCC3=NOC[C@]32C)[C@@H]1C/C=C1/C(=O)OC[C@H]1O [Example 11, (S,E)-3-(2-((5aS,6R,9aS,9bS)-5a,9b-dimethyl-7-methylene-1,4,5,5a,6,7,8,9,9a,9b-decahydronaphtho[2,1-c]isoxazol-6-yl)ethylidene)-4-hydroxydihydrofuran-2(3H)-one] | 
> 2000 nM |  | C=C1CC[C@@H]2[C@]3(C)COCO[C@@H]3CC[C@@]2(C)[C@@H]1C/C=C1/C(=O)OCC1NC(C)=O (single isomer, unassigned) [Example 45B] | 
500 to 2000 nM |  | C=C1CC[C@@H]2[C@@H](C)[C@](O)(C(F)(F)F)CC[C@@]2(C)[C@@H]1C/C=C1/C(=O)OCC1NC=O (single isomer, unassigned) [Example 44B] | 
 | 30 to 50% | CC(=O)N[C@@H]1COC(=O)/C1=C/C[C@H]1C2(CC[C@H]3C(C)(C)CCC[C@@]31C)CC2 [Example 26, N—((S,E)-5-oxo-4-(2-((1′S,4a′S,8a′S)-5′,5′,8a′-trimethyloctahydro-1′H-spiro[cyclopropane-1,2′-naphthalen]-1′-yl)ethylidene)tetrahydrofuran-3-yl)acetamide] | 
 |  | C=C1CC[C@@H]2[C@]3(C)COCO[C@@H]3CC[C@@]2(C)[C@@H]1C/C=C1/C(=O)OCC1NC=O (single isomer, unassigned) [Example 39B] | % Activation @ 10 μM [2]: B (B: 51 to 100%)
< 500 nM |  | C=C1CC[C@@H]2[C@@H](C)[C@@](O)(C(F)(F)F)CC[C@@]2(C)[C@@H]1C/C=C1/C(=O)OC[C@H]1O [Example 42B, (S,E)-4-hydroxy-3-(2-((1R,4aR,5R,6R,8aR)-6-hydroxy-5,8a-dimethyl-2-methylene-6-(trifluoromethyl)decahydronaphthalen-1-yl)ethylidene)dihydrofuran-2(3H)-one] | 
 | 51 to 100% | CC1(C)CCC[C@@]2(C)[C@H]1CCC1(CC1)[C@@H]2C/C=C1\C(=O)OCC1O (stereo partly drawn) [Example 23, (Z)-4-hydroxy-3-(2-((1′S,4a′S,8a′S)-5′,5′,8a′-trimethyloctahydro-1′H-spiro[cyclopropane-1,2′-naphthalen]-1′-yl)ethylidene)dihydrofuran-2(3H)-one] | 
 | 51 to 100% | C=C1CC[C@H]2[C@@](C)(CC[C@@](C)(O)[C@@]2(C)CO)[C@@H]1C/C=C1/C(=O)OC[C@H]1O [Example 7, (S,E)-4-hydroxy-3-(2-((1R,4aS,5R,6R,8a5)-6-hydroxy-5-(hydroxymethyl)-5,6,8a-trimethyl-2-methylenedecahydronaphthalen-1-yl)ethylidene)dihydrofuran-2(3H)-one] | 
500 to 2000 nM | 51 to 100% | CO[C@@H]1CC[C@@]2(C)[C@H](C/C=C3/C(=O)OC[C@H]3O)C(C)=CC[C@@H]2[C@H]1C [Example 17, (S,E)-4-hydroxy-3-(2-((1R,4aR,5R,6R,8aR)-6-methoxy-2,5,8a-trimethyl-1,4,4a,5,6,7,8,8a-octahydronaphthalen-1-yl)ethylidene)dihydrofuran-2(3H)-one] | 
< 500 nM | > 100% | C=C1CC[C@@H]2[C@@H](C)[C@](C)(O)CC[C@@]2(C)[C@@H]1C/C=C1/C(=O)OC[C@H]1O [Example 4, (S,E)-4-hydroxy-3-(2-((1R,4aR,5R,6R,8aR)-6-hydroxy-5,6,8a-trimethyl-2-methylenedecahydronaphthalen-1-yl)ethylidene)dihydrofuran-2(3H)-one] | 
 |  | C=C1CC[C@@H]2[C@]3(C)COS(=O)O[C@@H]3CC[C@@]2(C)[C@@H]1C/C=C1/C(=O)OCC1NC(=O)COC (stereo partly drawn) [Example 40A, N-((E)-4-(2-((4aR,6aS,7R,10aS,10bR)-6a,10b-dimethyl-8-methylene-3-oxidodecahydro-1H-naphtho[2,1-d][1,3,2]dioxathiin-7-yl)ethylidene)-5-oxotetrahydrofuran-3-yl)-2-methoxyacetamide] | activation at 10 µM [2]: 51 to 100%
< 500 nM | > 100% | C=C1CC[C@@H]2[C@@H](C)[C@H](OC)CC[C@@]2(C)[C@@H]1C/C=C1/C(=O)OC[C@H]1O [Example 16, (S,E)-4-hydroxy-3-(2-((1R,4aR,5R,6R,8aR)-6-methoxy-5,8a-dimethyl-2-methylenedecahydronaphthalen-1-yl)ethylidene)dihydrofuran-2(3H)-one] | 
> 2000 nM |  | C=C1CC[C@@H]2[C@]3(C)COCO[C@@H]3CC[C@@]2(C)[C@@H]1C/C=C1/C(=O)OCC1NC(=O)COC (single isomer, unassigned) [Example 46B] | 
500 to 2000 nM |  | C=C1CC[C@@H]2[C@]3(C)CO[S@@](=O)O[C@@H]3CC[C@@]2(C)[C@@H]1C/C=C1/C(=O)OC[C@H]1O [Example 9, (S,E)-3-(2-((3R,4aR,6aS,7R,10aS,10bR)-6a,10b-dimethyl-8-methylene-3-oxidodecahydro-1H-naphtho[2,1-d][1,3,2]dioxathiin-7-yl)ethylidene)-4-hydroxydihydrofuran-2(3H)-one] | 
500 to 2000 nM |  | C=C1CC[C@@H]2[C@]3(C)COS(=O)O[C@@H]3CC[C@@]2(C)[C@@H]1C/C=C1/C(=O)OCC1NC(=O)CO (single isomer, unassigned) [Example 41B] | 
 | 51 to 100% | C=C1CC[C@@H]2[C@]3(C)COS(=O)O[C@@H]3CC[C@@]2(C)[C@@H]1C/C=C1\C(=O)OC[C@H]1NC=O (stereo partly drawn) [Example 28, N-((3S,Z)-4-(2-((4aR,6aS,7R,10aS,10bR)-6a,10b-dimethyl-8-methylene-3-oxidodecahydro-1H-naphtho[2,1-d][1,3,2]dioxathiin-7-yl)ethylidene)-5-oxotetrahydrofuran-3-yl)formamide] | 
500 to 2000 nM |  | C=C1CC[C@@H]2[C@@H](C)[C@@](O)(C(F)(F)F)CC[C@@]2(C)[C@@H]1C/C=C1/C(=O)OCC1NC=O (single isomer, unassigned) [Example 43A] | 
 | 30 to 50% | CC1(C)CCC[C@@]2(C)[C@H]1CCC1(CC1)[C@@H]2CC/C=C1/C(=O)OC[C@H]1NC=O [Example 33, N-((S,E)-5-oxo-4-(3-((1′S,4a′S,8a′S)-5′,5′,8a′-trimethyloctahydro-1′H-spiro[cyclopropane-1,2′-naphthalen]-1′-yl)propylidene)tetrahydrofuran-3-yl)formamide] | 
 |  | C=C1CC[C@@H]2[C@]3(C)COS(=O)O[C@@H]3CC[C@@]2(C)[C@@H]1C/C=C1/C(=O)OC[C@H]1NC(=O)OC (single isomer, unassigned) [Example 30] | activation at 10 µM [2]: 51 to 100%
 | 51 to 100% | C=C1CC[C@@H]2[C@]3(C)COS(=O)O[C@@H]3CC[C@@]2(C)[C@@H]1C/C=C1/C(=O)OCC1NC=O (stereo partly drawn) [Example 19, N-((E)-4-(2-((4aR,6aS,7R,10aS,10bR)-6a,10b-dimethyl-8-methylene-3-oxidodecahydro-1H-naphtho[2,1-d][1,3,2]dioxathiin-7-yl)ethylidene)-5-oxotetrahydrofuran-3-yl)formamide] | 
< 500 nM | > 100% | C=C1CC[C@@H]2[C@@H](C)[C@H](O)CC[C@@]2(C)[C@@H]1C/C=C1/C(=O)OC[C@H]1O [Example 2, (S,E)-4-hydroxy-3-(2-((1R,4aR,5R,6R,8aR)-6-hydroxy-5,8a-dimethyl-2-methylenedecahydronaphthalen-1-yl)ethylidene)dihydrofuran-2(3H)-one] | 

Compound | EC50 | activation at 10 µM [1] | other results
C=C1CC[C@@H]2[C@]3(C)COS(=O)O[C@@H]3CC[C@@]2(C)[C@@H]1C/C=C1/C(=O)OC[C@@H]1NC(=O)OC (single isomer, unassigned) [Example 31] | 500 to 2000 nM |  | activation at 10 µM [2]: > 100%
